The record followed here is US12384753B2, “17-beta-hydroxysteroid dehydrogenase type 13 inhibitors and methods of use thereof” (Enanta Pharmaceuticals, Inc., priority 2021, dated 2025).

What is called IC50 is the concentration at which inhibition is half-maximal.

Each structure is given as a SMILES string.

This assay deals with Recombinant human HSD17B13 (Homo sapiens (Human), UniProt Q7Z5P4). The assay can be described thus: HSD17B13 rapid-fire mass spectrometry assay (RF/MS assay). The format is biochemical. Particulars: inhibition of HSD17B13; LTB4 10 μM, NAD+ 0.5 mM, RT 3 h; IC50 ranges A-E. An outline of the steps: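 Product 12-oxo-LTB4 and substrate LTB4 quantified by RapidFire triple-quad MS in negative mode, giving percent conversion. Reaction: 80 nM recombinant hHSD17B13, 10 μM LTB4, 0.5 mM NAD+, compound up to 100 μM, pH 7.5, RT, 3 h. Variable-slope fit gave IC50; run in duplicate.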
Recombinant human HSD17B13, sequence (Q7Z5P4 20-300): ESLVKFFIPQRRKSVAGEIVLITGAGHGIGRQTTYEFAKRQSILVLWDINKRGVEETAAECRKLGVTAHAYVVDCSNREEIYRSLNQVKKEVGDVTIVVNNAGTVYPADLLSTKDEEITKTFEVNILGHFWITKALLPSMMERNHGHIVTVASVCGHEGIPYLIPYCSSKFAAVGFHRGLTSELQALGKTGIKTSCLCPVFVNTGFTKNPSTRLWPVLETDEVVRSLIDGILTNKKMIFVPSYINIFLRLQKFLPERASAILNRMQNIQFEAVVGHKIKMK
For `COc1cc(C(=O)O)ccc1NS(=O)(=O)c1cccc(-c2ccc(C3CCCCC3)cc2)c1` [Example 472], the IC50 is 100 to 500 nM. For the molecule `COc1cc(C(=O)O)c(F)cc1NS(=O)(=O)c1coc(-c2ccc(C3CCC(C)(C)CC3)cc2)n1` [Example 496], the IC50 is < 100 nM. As to `COc1cc(C(=O)O)c(F)cc1NS(=O)(=O)c1csc(-c2ccc([C@H]3CC[C@H](C(C)C)CC3)c(F)c2C)n1` [Example 806], the IC50 was < 100 nM. `COc1cc(C(=O)O)c(F)cc1NS(=O)(=O)c1csc(-c2ccc(C3=CCC(C)(C)CC3)cc2F)n1` [Example 510]: the IC50 was < 100 nM.

Consider `COc1cc(C(=O)O)c(F)cc1NS(=O)(=O)c1ccc(-c2ccc(C)cc2)s1` [Example 233], for which the IC50 was 100 to 500 nM. The same measure for `COc1cc(C(=O)O)ccc1NS(=O)(=O)c1csc(-c2ccc3cnccc3c2)n1` [Example 405]: 100 to 500 nM. With `COc1cc(C(=O)O)ccc1NS(=O)(=O)c1ccc(C2=CCC(c3ccccc3)CC2)cc1F` (stereo not drawn) [Example 343, 4-((3-fluoro-2′,3′,4′,5′-tetrahydro-[1,1′:4′,1″-terphenyl])-4-sulfonamido)-3-methoxybenzoic acid], the IC50 is < 100 nM.

Regarding `COc1cc(C(=O)O)ccc1NS(=O)(=O)c1cccc(-c2ccc(C3=CCC(C(C)(C)C)CC3)cc2)c1F` (stereo not drawn) [Example 477, 4-((4″-(tert-butyl)-2-fluoro-2″,3″,4″,5″-tetrahydro-[1,1′:4′,1″-terphenyl])-3-sulfonamido)-3-methoxybenzoic acid], the IC50 lay within 100 to 500 nM.

Turning to `COc1cc(C(=O)O)ccc1NS(=O)(=O)c1ccc(-c2cccc(-c3ccccc3)c2)s1` [Example 249, 4-((5-([1,1′-biphenyl]-3-yl)thiophene)-2-sulfonamido)-3-methoxybenzoic acid], the IC50 fell in the range of 100 to 500 nM. Regarding `COc1cc(C(=O)O)ccc1NS(=O)(=O)c1csc(N2CCCC(Cc3ccc(C(F)(F)F)cc3)C2)n1` (stereo not drawn) [Example 283], the IC50 lay within 100 to 500 nM. As for `COc1cc(C(=O)O)ccc1NS(=O)(=O)c1cnc(-c2ccc(C3=C[C@H]4CC[C@]3(C)C4(C)C)cc2)s1` [Example 711], the IC50 lay in the range of 100 to 500 nM. In the case of `COc1cc(C(=O)O)ccc1NS(=O)(=O)c1ccc(-c2ccccc2F)s1` [Example 201], the IC50 was < 100 nM. Turning to `COc1cc(C(=O)O)ccc1NS(=O)(=O)N1CCC(c2nnn[nH]2)CC1` [Example 313], the half-inhibitory concentration (IC50) fell in the range of 1000 to 100000 nM. Consider `COc1cc(C(=O)O)c(F)cc1NS(=O)(=O)c1csc(-c2ccc(-c3ccc(C45CC6C[C@H](C4)C[C@H](C6)C5)cc3)cc2F)n1` [Example 760], for which the IC50 was < 100 nM. Take `CCCOc1c(C2CCC(C)(C)CC2)ccc(-c2nc(S(=O)(=O)Nc3cc(F)c(C(=O)O)cc3OC)cs2)c1F` [Example 579]: the IC50 was 100 to 500 nM.

As for `O=S(=O)(O)c1ccc(NS(=O)(=O)c2cnc(-c3ccc(F)cc3)s2)cc1` [Example 118], the IC50 was > 100000 nM. As to `COc1cc(C(=O)O)c(C)cc1NS(=O)(=O)c1csc(-c2ccc(C3CCC(C)(C)CC3)cc2C(F)(F)F)n1` [Example 702], the IC50 lay in the range of 1000 to 100000 nM. Take `O=C(O)c1ccc(CNS(=O)(=O)c2cnc(-c3ccc(F)cc3)s2)cc1` [Example 29]: the IC50 was in the range of 1000 to 100000 nM. Regarding `COc1cc(C(=O)O)c(F)cc1NS(=O)(=O)c1cnn(-c2ccc(C3CCC(C)(C)CC3)cc2)c1` [Example 684], the IC50 was in the range of 100 to 500 nM. `COc1cc(C(=O)O)ccc1NS(=O)(=O)c1csc(-c2ccc(C3CCC(OC)CC3)cc2)n1` (stereo not drawn) [Example 503]: the IC50 was 100 to 500 nM. Consider `O=C(O)c1ccccc1NS(=O)(=O)c1cnc(-c2ccc(F)cc2)s1` [Example 16], for which the IC50 fell in the range of 1000 to 100000 nM. On to `O=C(O)c1ccc(NS(=O)(=O)c2cnc(-c3ccc(F)cc3)s2)nc1` [Example 33], for which the IC50 is 1000 to 100000 nM.

Consider `O=C(O)c1ccc(NS(=O)(=O)c2cscn2)cc1` [Example 52], for which the IC50 was 1000 to 100000 nM.

As to `CC(C)(C)c1ccc(S(=O)(=O)NC(=O)c2ccc(NS(=O)(=O)c3cnc(-c4ccc(F)cc4)s3)cc2)cc1` [Example 31, N-((4-(tert-butyl)phenyl)sulfonyl)-4-((2-(4-fluorophenyl)thiazole)-5-sulfonamido)benzamide], the IC50 was in the range of 1000 to 100000 nM. The same measure for `COc1cc(C(=O)O)c(F)cc1NS(=O)(=O)c1ccc2nc(-c3ccc(C4CCCCC4)cc3)sc2c1` [Example 661]: 100 to 500 nM. As to `COc1cc(C(=O)O)ccc1NS(=O)(=O)c1csc(N2CCCC(CCc3ccccc3)C2)n1` (stereo not drawn) [Example 277], the IC50 is 1000 to 100000 nM. With `COc1cc(C(=O)O)ccc1NS(=O)(=O)c1csc(N2CCN(c3ccc(OC(F)(F)F)cc3)CC2)n1` [Example 271], the IC50 is 100 to 500 nM. As for `COc1cc(C(=O)O)c(F)cc1NS(=O)(=O)c1csc(-c2ccc([C@H]3CC[C@H](C(C)C)CC3)c(F)c2F)n1` [Example 773], the IC50 was < 100 nM. As to `COc1cc(C(=O)O)ccc1NS(=O)(=O)c1csc(NCCc2ccccc2)n1` [Example 165], the IC50 lay in the range of 1000 to 100000 nM. Regarding `COc1cc(C(=O)O)c(F)cc1NS(=O)(=O)c1csc(-c2ccc(C3CCC(C)(C)CC3)cc2-c2ccc(F)cc2)n1` [Example 558], the IC50 was in the range of 100 to 500 nM. On to `COc1cc(C(=O)O)ccc1NS(=O)(=O)c1csc(C#Cc2ccc(Cl)cc2)n1` [Example 185], for which the IC50 lay in the range of 500 to 1000 nM. Turning to `COc1cc(C(=O)O)ccc1NS(=O)(=O)c1csc(C#Cc2cccc(F)c2)n1` [Example 203], the IC50 was < 100 nM. `O=C(O)c1ccc(NS(=O)(=O)c2cnc(-c3ccc(F)cc3)s2)cc1-c1ccccc1` [Example 47]: the IC50 was in the range of 1000 to 100000 nM. Take `COc1cc(C(=O)O)c(F)cc1NS(=O)(=O)c1ccc2sc(-c3ccc(C4CC4)cc3)nc2c1` [Example 669]: the 50% inhibitory concentration (IC50) is 100 to 500 nM.

`COc1cc(C(=O)O)c(F)cc1NS(=O)(=O)c1cccc(-c2ccc(C3=CC[C@H](C(C)(C)C)CC3)cc2)c1F` [Example 499]: the IC50 is < 100 nM. The same measure for `COc1cc(C(=O)O)ccc1NS(=O)(=O)c1csc(C#Cc2ccccc2C(F)(F)F)n1` [Example 225]: < 100 nM; for `COc1cc(S(N)(=O)=O)ccc1NS(=O)(=O)c1cnc(-c2ccc(F)cc2)s1` [Example 119]: 1000 to 100000 nM. With `CCOc1c(C2CCC(C)(C)CC2)ccc(-c2nc(S(=O)(=O)Nc3cc(F)c(C(=O)O)cc3OC)cs2)c1F` [Example 570], the 50% inhibitory concentration (IC50) was < 100 nM. In the case of `COc1cc(C(=O)O)c(F)cc1NS(=O)(=O)c1csc(-c2ccc(C3CCC(C)(C)CC3)cn2)n1` [Example 573], the IC50 is 100 to 500 nM. In the case of `COc1cc(C(=O)O)c(F)cc1NS(=O)(=O)c1csc(-c2ccc(C3CC4CCC(C4)C3)cc2)n1` (stereo not drawn) [Example 534], the IC50 was in the range of 100 to 500 nM. Take `COc1cc(C(=O)O)c(F)cc1NS(=O)(=O)c1ccn(-c2ccc([C@H]3CC[C@H](C(C)C)CC3)cc2)n1` [Example 694]: the half-inhibitory concentration (IC50) was < 100 nM. As for `COc1cc(C(=O)O)ccc1NS(=O)(=O)c1csc(C#Cc2ccncc2)n1` [Example 216], the IC50 lay within 100 to 500 nM. The same measure for `COc1cc(C(=O)O)ccc1NS(=O)(=O)c1csc(-c2ccc(C(=O)O)cc2OC)n1` [Example 322]: 1000 to 100000 nM.

In the case of `CCOc1cc(C(=O)O)ccc1NS(=O)(=O)c1cnc(-c2ccc(F)cc2)s1` [Example 1], the IC50 lay within 500 to 1000 nM. In the case of `COc1cc(C(=O)O)ccc1NS(=O)(=O)c1cnc(C#Cc2ccccc2)s1` [Example 169], the IC50 was 100 to 500 nM. `COc1cc(C(=O)O)c(F)cc1NS(=O)(=O)c1csc(-c2ccc(CCC(C)C)cc2)n1` [Example 625]: the IC50 fell in the range of 100 to 500 nM. Turning to `COc1cc(C(=O)O)ccc1NS(=O)(=O)c1csc(-c2ccc3cc(C4=CCC(C)(C)CC4)ccc3c2)n1` [Example 459, 4-((2-(6-(4,4-dimethylcyclohex-1-en-1-yl)naphthalen-2-yl)thiazole)-4-sulfonamido)-3-methoxybenzoic acid], the IC50 was 500 to 1000 nM. The same measure for `COc1cc(C(=O)O)ccc1NS(=O)(=O)c1csc(N2CCN(C(=O)OC(C)C)CC2)n1` [Example 309]: 1000 to 100000 nM; for `O=C(O)c1ccc(NS(=O)(=O)c2cnc(-c3ccccc3)s2)c(O)c1` [Example 160]: 100 to 500 nM; for `O=S(=O)(Nc1ccc(CO)cc1)c1cnc(-c2ccc(F)cc2)s1` [Example 36, 2-(4-fluorophenyl)-N-(4-(hydroxymethyl)phenyl)thiazole-5-sulfonamide]: 1000 to 100000 nM. Turning to `COc1cc(C(=O)O)ccc1NS(=O)(=O)c1csc(N2CC(c3ccccc3)C2)n1` [Example 267], the IC50 was 1000 to 100000 nM.

Turning to `COc1cc(C(=O)O)ccc1NS(=O)(=O)c1csc(-c2ccc(-c3ccc4c(c3)OCCO4)cc2)n1` [Example 382], the IC50 is < 100 nM. As for `COc1cc(C(=O)O)c(F)cc1NS(=O)(=O)c1csc(-c2ccc(C3CCC(C)(C)CC3)cc2OC(F)(F)F)n1` [Example 543], the IC50 was < 100 nM. For `COc1cc(C(=O)O)c(F)cc1NS(=O)(=O)c1csc(-c2ccc(C3(O)CCC(C)(C)CC3)cc2)n1` [Example 748], the IC50 is < 100 nM. On to `COc1cc(C(=O)O)c(F)cc1NS(=O)(=O)c1csc(-c2ccc(-c3ccc(C45CC6C[C@H](C4)C[C@H](C6)C5)cc3)c(F)c2F)n1` [Example 739], for which the IC50 was in the range of 100 to 500 nM.

On to `Cn1nc(C(=O)O)cc1NS(=O)(=O)c1cnc(-c2ccc(F)cc2)s1` [Example 91], for which the IC50 was > 100000 nM. In the case of `CCCCC[C@H]1CC[C@H](c2ccc(-c3nc(S(=O)(=O)Nc4ccc(C(=O)O)cc4OC)cs3)cc2)CC1` [Example 508], the IC50 is < 100 nM. In the case of `CC[C@H]1CC[C@H](c2ccc(-c3nc(S(=O)(=O)Nc4ccc(C(=O)O)cc4OC)co3)cc2)CC1` [Example 488], the IC50 was 100 to 500 nM. On to `Cc1nc(S(=O)(=O)Nc2ccc(C(=O)O)cc2)cs1` [Example 53], for which the IC50 was 1000 to 100000 nM.

For the molecule `COc1cc(C(=O)O)ccc1NS(=O)(=O)c1ccc(-c2cccc(O)c2)s1` [Example 191], the IC50 was < 100 nM.
